Measurements published in US20260265246A1 (ICAHN SCHOOL OF MEDICINE AT MOUNT SINAI, priority 2021, published 2026).
Where two headings read alike, the source gives them in different places.

Columns and labels:
[1] = target: T1, 5HT2A receptor (Homo sapiens, UniProt P28223); assay: biochemical; format: binding; design: expressed in transfected cells; crude membranes
[2] = target: T1, 5HT2A receptor; assay: cell-based; design: expressed in transfected cells; host or cells: HEK293T cells, transient co-transfection; conditions: for Emax: HEK-293T
[3] = target: T1, 5HT2A receptor; assay: cell-based; design: expressed in transfected cells; host or cells: HEK293T cells, transient co-transfection; conditions: for Emax: HEK-293T; remark: listed apart in the source
[4] = 5HT2A Ki (nM), secondary radioligand binding, Ki from IC50 by Cheng-Prusoff
[5] = BRET2 Gαq dissociation, HEK293T cells, read-out: 5HT2A Gq EC50
[6] = BRET2 Gαq dissociation, HEK293T cells, normalized to 5-HT, read-out: 5HT2A Gq Emax (%)
[7] = 5HT2A β-Arr EC50 (nM), BRET1 beta-arrestin2 recruitment, HEK293T cells
[8] = BRET1 beta-arrestin2 recruitment, HEK293T cells, normalized to 5-HT, read-out: 5HT2A β-Arr Emax (%)
[9] = 5HT2A Ki (nM), secondary binding assay, Cheng-Prusoff
[10] = 5HTA Gq EC50 (nM), BRET2 Gαq dissociation, HEK293T
[11] = BRET2 Gαq dissociation, HEK293T, normalized to 5-HT, read-out: 5HTA Gq Emax (%)
[12] = 5HT2A β-Arr EC50 (nM), BRET1 beta-arrestin2 recruitment, HEK293T
[13] = BRET1 beta-arrestin2 recruitment, HEK293T, normalized to 5-HT, read-out: 5HT2A β-Arr Emax (%)
[14] = secondary radioligand binding, Ki from IC50 by Cheng-Prusoff, read-out: 5HT2A Ki
[15] = BRET1 beta-arrestin2 recruitment, HEK293T cells, read-out: 5HT2A β-Arr EC50
[16] = BRET2 Gαq dissociation, HEK293T, read-out: 5HTA Gq EC50
[17] = BRET1 beta-arrestin2 recruitment, HEK293T, read-out: 5HT2A β-Arr EC50
[18] = BRET2 Gαq dissociation, HEK293T, normalized to 5-HT
[19] = BRET1 beta-arrestin2 recruitment, HEK293T, normalized to 5-HT
[20] = read-out: 5HTA Gq Emax (%), BRET2 Gαq dissociation, HEK293T, normalized to 5-HT
[21] = read-out: 5HT2A β-Arr Emax (%), BRET1 beta-arrestin2 recruitment, HEK293T, normalized to 5-HT

T1 sequence (P28223 whole entry): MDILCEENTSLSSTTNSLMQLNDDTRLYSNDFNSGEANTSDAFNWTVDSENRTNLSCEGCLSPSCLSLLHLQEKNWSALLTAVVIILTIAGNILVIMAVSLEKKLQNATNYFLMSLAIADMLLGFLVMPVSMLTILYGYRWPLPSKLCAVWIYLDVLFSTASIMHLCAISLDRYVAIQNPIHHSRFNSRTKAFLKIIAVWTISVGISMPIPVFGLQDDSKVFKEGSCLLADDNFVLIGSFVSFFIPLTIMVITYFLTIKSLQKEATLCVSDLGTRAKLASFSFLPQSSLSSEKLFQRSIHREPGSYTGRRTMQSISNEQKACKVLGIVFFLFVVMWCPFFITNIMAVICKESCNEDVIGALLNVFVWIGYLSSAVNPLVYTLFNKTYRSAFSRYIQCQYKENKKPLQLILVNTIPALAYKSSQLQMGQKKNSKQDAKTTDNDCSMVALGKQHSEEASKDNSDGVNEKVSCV

Compound | EC50 [2, 5] [nM] | Emax [2, 6] [%] | Emax [3, 8] [%] | Ki [1, 9] [nM] | EC50 [2, 10] [nM] | Emax [2, 11] [%] | EC50 [3, 12] [nM] | Emax [3, 13] [%] | further results
N#Cc1cccc2c(C3=CCCNC3)n[nH]c12 [Example 91, 3-(1,2,5,6-tetrahydropyridin-3-yl)-1H-indazole-7-carbonitrile] | 17.2 | 126 | 86 |  |  |  |  |  | Ki [1, 4]: 237 nM; EC50 [3, 7]: 105 nM
COC1(c2c[nH]c3c(Cl)cccc23)CNC1 [Example 254, 7-chloro-3-(3-methoxyazetidin-3-yl)-1H-indole] |  |  |  | 1080 | 294 | 88.3 | 1460 | 77.6 | 
CCN1CCC=C(c2c[nH]c3c(Cl)cccc23)C1 [Example 126, 7-chloro-3-(1-ethyl-1,2,5,6-tetrahydropyridin-3-yl)-1H-indole] | 40.2 | 96.6 | 62.9 |  |  |  |  |  | Ki [1, 14]: 42.6 nM; EC50 [3, 15]: 74.9 nM
CCN1CCC=C(c2n[nH]c3c(Cl)cccc23)C1 [Example 145, 7-chloro-3-(1-ethyl-1,2,5,6-tetrahydropyridin-3-yl)-1H-indazole] |  |  |  | 123 |  | 64.4 |  | 42.4 | EC50 [2, 16]: 23.3 nM; EC50 [3, 17]: 77 nM
N#Cc1cccc2c(C34CNCC3C4)n[nH]c12 (stereo not shown) [Example 184, 3-(3-azabicyclo[3.1.0]hexan-1-yl)-1H-indazole-7-carbonitrile] |  |  |  | 5680 | 423 | 103 | 1970 | 68.2 | 
Cc1cccc2c(C34CNCC3C4)c[nH]c12 (stereo not shown) [Example 272, 3-(3-azabicyclo[3.1.0]hexan-1-yl)-7-methyl-1H-indole] |  |  |  | 890 | 100 | 89.5 | 1500 | 38 | 
N#Cc1cccc2c(C34CNCCC3C4)n[nH]c12 (stereo not shown) [Example 195, 3-(3-azabicyclo[4.1.0]heptan-1-yl)-1H-indazole-7-carbonitrile] |  |  |  | > 10000 | 1090 | 77.4 | 1040 | 21.7 | 
FC(F)(F)CCN1CCC=C(c2n[nH]c3c(Cl)cccc23)C1 [Example 164, 7-chloro-3-(1-(3,3,3-trifluoropropyl)-1,2,5,6-tetrahydropyridin-3-yl)-1H-indazole] |  |  |  | > 10000 | 518 | 52.9 | 836 | 23.3 | 
Clc1cccc2c(C34CNCC3C4)n[nH]c12 (single isomer, unassigned) [Example 274, 3-(3-azabicyclo[3.1.0]hexan-1-yl)-7-chloro-1H-indazole] |  |  |  | 1580 |  |  | 733 |  | 5HTA Gq Emax (%) [2, 18]: 117.2%; EC50 [2, 16]: 61.5 nM; 5HT2A β-Arr Emax (%) [3, 19]: 50.96%
Fc1cccc2[nH]nc(C3=CCCNC3)c12 [Example 81, 4-fluoro-3-(1,2,5,6-tetrahydropyridin-3-yl)-1H-indazole] | 26.5 | 92.3 | 75.7 |  |  |  |  |  | Ki [1, 4]: 348 nM; EC50 [3, 7]: 211 nM
CCc1cccc2c(C3=CCCN(C)C3)c[nH]c12 [Example 52, 7-ethyl-3-(1-methyl-1,2,5,6-tetrahydropyridin-3-yl)-1H-indole] | 25 | 89.3 | 73.4 |  |  |  |  |  | Ki [1, 14]: 42 nM; EC50 [3, 7]: 880 nM
FC(F)(F)CN1CCC=C(c2n[nH]c3c(Cl)cccc23)C1 [Example 152, 7-chloro-3-(1-(2,2,2-trifluoroethyl)-1,2,5,6-tetrahydropyridin-3-yl)-1H-indazole] |  |  |  | 389 | 1570 |  | 1050 |  | Emax [2, 20]: 89.8%; Emax [3, 21]: 66.5%
CCCN1CCC=C(c2n[nH]c3c(CC)cccc23)C1 [Example 237, 7-ethyl-3-(1-propyl-1,2,5,6-tetrahydropyridin-3-yl)-1H-indazole] |  |  |  | 389 |  | 37.7 | 1580 | 39.8 | EC50 [2, 16]: 33.6 nM
Fc1cccc2c(C34CCNCC3C4)n[nH]c12 (stereo not shown) [Example 229, 3-(3-azabicyclo[4.1.0]heptan-6-yl)-7-fluoro-1H-indazole] |  |  |  | 1900 | 236 | 83.7 | 2070 | 90.2 | 
CN1CCC=C(c2n[nH]c3ccccc23)C1 [Example 46, 3-(1-methyl-1,2,5,6-tetrahydropyridin-3-yl)-1H-indazole] | 3.3 | 62.6 | 21.9 |  |  |  |  |  | Ki [1, 14]: 87.3 nM; EC50 [3, 7]: 115 nM
Clc1cc(Br)cc2c(C3CNC3)c[nH]c12 [Example 267, 3-(azetidin-3-yl)-5-bromo-7-chloro-1H-indole] |  |  |  | 175 | 949 | 64 | 1050 | 20.8 | 
Clc1cccc2c(C34CNCC3C4)c[nH]c12 (stereo not shown) [Example 270, 3-(3-azabicyclo[3.1.0]hexan-1-yl)-7-chloro-1H-indole] |  |  |  | 134 |  | 93.8 | 822 | 21.2 | EC50 [2, 16]: 29.8 nM
Fc1ccc2c(C34CNCC3C4)c[nH]c2c1 (stereo not shown) [Example 281, 3-(3-azabicyclo[3.1.0]hexan-1-yl)-6-fluoro-1H-indole] |  |  |  |  |  | 66.3 | 369 | 27.9 | Ki ([1]; secondary binding assay, Cheng-Prusoff, read-out: 5HT2A Ki): 61.9 nM; EC50 [2, 16]: 52.1 nM
Clc1cccc2c(C34CNCC3C4)n[nH]c12 (single isomer, unassigned) [Example 273, 3-(3-azabicyclo[3.1.0]hexan-1-yl)-7-chloro-1H-indazole] |  |  |  | 6300 | 226 |  | 1300 |  | 5HTA Gq Emax (%) [2, 18]: 81.0%; 5HT2A β-Arr Emax (%) [3, 19]: 20.73%
Cc1cccc2[nH]nc(C3=CCCNC3)c12 [Example 80, 4-methyl-3-(1,2,5,6-tetrahydropyridin-3-yl)-1H-indazole] | 73.8 | 83.4 | 71.8 |  |  |  |  |  | Ki [1, 4]: 254 nM; EC50 [3, 7]: 698 nM
Cc1cccc2c(C3=CCCN(C)C3)n[nH]c12 [Example 105, 7-methyl-3-(1-methyl-1,2,5,6-tetrahydropyridin-3-yl)-1H-indazole] | 35.4 | 75.4 | 45.7 |  |  |  |  |  | Ki [1, 4]: 1340 nM; EC50 [3, 7]: 432 nM
Fc1cc(Cl)c2[nH]nc(C3=CCCNC3)c2c1 [Example 129, 7-chloro-5-fluoro-3-(1,2,5,6-tetrahydropyridin-3-yl)-1H-indazole] |  |  |  | 162 |  | 88.8 |  | 95 | EC50 [2, 16]: 3.1 nM; EC50 [3, 17]: 20.1 nM
CCCN1CCC=C(c2c[nH]c3c(Cl)cc(F)cc23)C1 [Example 159] |  |  |  | 126 | 17.5 |  | 66.9 |  | Emax [2, 20]: 90.3%; Emax [3, 21]: 39.7%
Cc1cccc2c(C34CNCC3C4)n[nH]c12 (stereo not shown) [Example 186, 3-(3-azabicyclo[3.1.0]hexan-1-yl)-7-methyl-1H-indazole] |  |  |  | 748 | 231 | 98.8 | 481 | 46.9 | 
CC#CCN1CCC=C(c2n[nH]c3c(Cl)cccc23)C1 [Example 149, 3-(1-(but-2-yn-1-yl)-1,2,5,6-tetrahydropyridin-3-yl)-7-chloro-1H-indazole] |  |  |  | 364 | 10.1 |  | 113 |  | Emax [2, 20]: 49.8%; Emax [3, 21]: 24.2%
Cc1cccc2[nH]cc(C3=CCCN(C)C3)c12 [Example 19, 4-methyl-3-(1-methyl-1,2,5,6-tetrahydropyridin-3-yl)-1H-indole] | 9 | 75.9 | 40.4 |  |  |  |  |  | Ki [1, 4]: 136 nM; EC50 [3, 7]: 102 nM
COc1ccnc2[nH]cc(C3=CCCN(C)C3)c12 [Example 14, 4-methoxy-3-(1-methyl-1,2,5,6-tetrahydropyridin-3-yl)-1H-pyrrolo[2,3-b]pyridine] | 72.7 | 67.1 | 32.2 |  |  |  |  |  | Ki [1, 14]: 43 nM; EC50 [3, 15]: 74.1 nM
CCc1cccc2c(C3=CCCN(C)C3)n[nH]c12 [Example 122, 7-ethyl-3-(1-methyl-1,2,5,6-tetrahydropyridin-3-yl)-1H-indazole] |  | 102 | 42.9 |  |  |  |  |  | Ki [1, 4]: 816 nM; EC50 ([2]; 5HT2A Gq EC50 (nM), BRET2 Gαq dissociation, HEK293T cells): 151 nM; EC50 [3, 7]: 247 nM
Clc1cccc2c(C3=CCNC3)n[nH]c12 [Example 206, 7-chloro-3-(2,5-dihydro-1H-pyrrol-3-yl)-1H-indazole] |  |  |  | 272 |  | 117 |  | 108 | EC50 [2, 16]: 14.4 nM; EC50 [3, 17]: 44.8 nM
